US6967261B1, “Bandage, methods of producing and using same” (Kimberly-Clark Worldwide, priority 2001, dated 2005)

How the values were obtained:
[1] = tested on: human blood; experiment: Lee and White coagulation assay in human blood; conditions: dried form, 5 mg/ml, triplicate
Procedure: Several hemostatic agents were compared to determine relative effectiveness when reviewed with untreated human blood. Such comparison is illustrated in the following Table 23.
Each of the compounds were evaluated in the comparison against the standard control (human blood) and the negative control heparin, which is an anti-coagulant.
Lee and White Coagulation Assay in Human Blood

[2] = tested on: full thickness (excisional) wounds; experiment: Accelerated wound healing study, full thickness acute wound model; format: in vivo, albino rats; conditions: rats, topical on wound, over 15 days; versus gauze and Comfeel
Procedure: In the examples of the study, a series of comparative control bandage substrates were evaluated as to the speed at which wounds covered/dressed with such bandages healed. In particular, the rates of re-epithelialization were measured for wounds dressed by such control dressing materials.
Wounds were treated with test and control articles on the day of wounding (day 0) on 2,4,6,8,10, 12, and 14 days after the injury. CNA (freeze dried) was cut to the approximate size of the wound and applied over the wound. Chitosan (powder) and NA (powder) were applied over the wound to the depth that covered the underlying tissue. The gauze was cut to extend approximately 0.5 cm beyond the margins of the wound. […]
For the study, twenty four albino rats (12M/12F), each weighing between 250-300 g, were anesthetized (90 mg/Kg Ketamine HCL and 10 mg/Kg Xylazine) and the entire dorsal region of each rat was shaved. […] The epithelial thickness of the three sections of the wound (margin, center and midpoint between these two) was measured by morphometric analysis of the microscopic image using Image-Pro Plus software, Version 3.0 (Media Cybernetics). The average thickness of these sites within the wound was determined for wound healing of the entire site.

Compound	BLOOD CLOTTING TIME [1]	wound healing capability (rate of epithelialization, epithelial thickness) [2]
Heparin	NC (NC = No Clot for 60 min)	
NC(=O)c1cccnc1.O=C1O[C@H]([C@@H](O)CO)C(O)=C1O [NA, Niacinamide ascorbate]		dramatically increased the wound healing capability
